Counter-ions that a name gives are not always drawn.
How the values were obtained:
PDGFR beta = target: T1, PDGFR beta (Homo sapiens, UniProt P09619); experiment: Phospho PDGFR LICOR Cell Assay (Example B); type: cell-based; conditions: averaged IC50; PDGFR beta phosphorylation in HS27 human fibroblast cell line, PDGF-BB stimulation 10 minutes, normalized to total ERK
T1 construct: endogenous in cells; host or cells: HS27 human fibroblast cell line
Method: Compounds were screened for inhibition of PDGFR beta phosphorylation in the HS27 human fibroblast cell line. Cells were seeded into a 96 well tissue culture plate, then incubated overnight in a 37° C./5% CO2 incubator. The following day, cells were treated for one hour with test compound dilutions. After stimulation with PDGF-BB ligand for 10 minutes, cells were washed with PBS and fixed in 3.7% formaldehyde in PBS for 10 minutes. This was followed by washing in PBS/0.2% Triton X-100 and permeabilizing in 100% MeOH for 10 minutes. Cells were incubated in blocking buffer for 1 hour. Antibodies to phosphorylated PDGFRβ and total ERK were added to the cells and incubated for 3 hours. After washing with PBS/0.2% Triton X-100, the cells were incubated with fluorescently-labeled secondary antibodies for an additional hour. Cells were then washed with PBS and analyzed for fluorescence at both wavelengths using the Odyssey Infrared Imaging System (LI-COR Biosciences). Phosphorylated PDGFR signal was normalized to total ERK signal. A standard 4-parameter logistic model was fit to the inhibitor dose response curves, with the IC50 being defined as the concentration of inhibitor giving 50 percent of control (POC).

cFMS = target: T2, cFMS (Homo sapiens, UniProt P07333); experiment: cFMS Cell-Based Assay (Example C); conditions: averaged IC50; phospho-cFMS in THP-1 cells stimulated with 250 ng/mL recombinant human MCSF; read-out: cFMS Cell ELISA IC50
T2 construct: THP-1 cells (human acute monocytic leukemia cell line) were serum-starved for 4 hours; endogenous in cells; host or cells: THP-1 cells (human acute monocytic leukemia cell line)
T2 sequence (P07333 20-972): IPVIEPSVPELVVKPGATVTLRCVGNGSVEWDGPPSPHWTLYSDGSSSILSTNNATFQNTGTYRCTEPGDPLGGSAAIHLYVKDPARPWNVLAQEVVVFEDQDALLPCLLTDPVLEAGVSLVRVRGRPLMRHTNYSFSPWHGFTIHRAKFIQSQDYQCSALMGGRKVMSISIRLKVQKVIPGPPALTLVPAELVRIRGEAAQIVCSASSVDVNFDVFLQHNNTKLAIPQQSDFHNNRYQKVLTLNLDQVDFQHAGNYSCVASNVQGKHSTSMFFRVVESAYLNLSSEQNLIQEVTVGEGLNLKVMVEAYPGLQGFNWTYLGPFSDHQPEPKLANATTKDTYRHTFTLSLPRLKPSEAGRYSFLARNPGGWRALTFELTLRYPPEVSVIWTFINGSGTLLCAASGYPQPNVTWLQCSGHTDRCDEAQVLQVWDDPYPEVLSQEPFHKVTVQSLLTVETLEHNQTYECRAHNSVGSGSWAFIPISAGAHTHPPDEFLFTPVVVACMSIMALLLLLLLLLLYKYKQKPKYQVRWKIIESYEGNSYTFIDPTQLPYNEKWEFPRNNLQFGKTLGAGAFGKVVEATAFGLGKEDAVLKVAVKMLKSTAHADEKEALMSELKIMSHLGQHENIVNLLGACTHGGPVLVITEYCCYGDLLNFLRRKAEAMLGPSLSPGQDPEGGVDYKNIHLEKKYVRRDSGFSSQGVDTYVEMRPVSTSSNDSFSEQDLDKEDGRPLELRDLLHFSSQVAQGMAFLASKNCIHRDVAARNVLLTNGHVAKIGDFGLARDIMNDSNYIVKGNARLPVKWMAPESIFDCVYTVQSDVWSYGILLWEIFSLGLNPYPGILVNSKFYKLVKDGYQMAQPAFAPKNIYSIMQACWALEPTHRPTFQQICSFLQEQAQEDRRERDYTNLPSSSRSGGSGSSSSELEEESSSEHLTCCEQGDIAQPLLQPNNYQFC
Method: The ability of compounds of Formula I to inhibit cFMS activation in cells was determined by the following assay. THP-1 cells (human acute monocytic leukemia cell line) were serum-starved for 4 hours prior to treatment with compounds of Formula I for 1 hour. The concentration of compounds of Formula I was varied over a 9-point, 3-fold dilution series with 5,000 nM typically being the highest dose. Cell culture and treatment were carried out in a humidified 37° C., 5% CO2 incubator. Treated cells were stimulated with 250 ng/mL recombinant human MCSF for 1 minute to induce activation of cFMS. Cells were lysed in a manner which preserves phosphoproteins, and the lysate was analyzed by ELISA (R&D Systems, Human Phospho-M-CSF R DuoSet IC DYC3268), in which total cFMS protein in the lysate is captured and phosphotyrosine residues of cFMS are detected. A standard curve, made using purified phospho-M-CSF R protein, was used to quantify phospho-c-FMS in compound-treated wells. A standard 4-parameter logistic model was fit to the inhibitor dose response curves, with the IC50 being defined as the concentration of inhibitor giving 50 percent of control (POC).

c-KIT = target: T3, c-KIT (Homo sapiens, UniProt P10721); experiment: c-KIT Cell-Based Assay (Example D); conditions: averaged IC50; phospho-c-KIT in M-07e cells stimulated with 150 ng/ml recombinant human SCF; read-out: cKIT Cell ELISA IC50
T3 construct: M-07e cells (human acute megakaryoblastic leukemia cell line) were serum-starved for 4 hours; endogenous in cells; host or cells: M-07e cells (human acute megakaryoblastic leukemia cell line)
T3 sequence (P10721 26-976): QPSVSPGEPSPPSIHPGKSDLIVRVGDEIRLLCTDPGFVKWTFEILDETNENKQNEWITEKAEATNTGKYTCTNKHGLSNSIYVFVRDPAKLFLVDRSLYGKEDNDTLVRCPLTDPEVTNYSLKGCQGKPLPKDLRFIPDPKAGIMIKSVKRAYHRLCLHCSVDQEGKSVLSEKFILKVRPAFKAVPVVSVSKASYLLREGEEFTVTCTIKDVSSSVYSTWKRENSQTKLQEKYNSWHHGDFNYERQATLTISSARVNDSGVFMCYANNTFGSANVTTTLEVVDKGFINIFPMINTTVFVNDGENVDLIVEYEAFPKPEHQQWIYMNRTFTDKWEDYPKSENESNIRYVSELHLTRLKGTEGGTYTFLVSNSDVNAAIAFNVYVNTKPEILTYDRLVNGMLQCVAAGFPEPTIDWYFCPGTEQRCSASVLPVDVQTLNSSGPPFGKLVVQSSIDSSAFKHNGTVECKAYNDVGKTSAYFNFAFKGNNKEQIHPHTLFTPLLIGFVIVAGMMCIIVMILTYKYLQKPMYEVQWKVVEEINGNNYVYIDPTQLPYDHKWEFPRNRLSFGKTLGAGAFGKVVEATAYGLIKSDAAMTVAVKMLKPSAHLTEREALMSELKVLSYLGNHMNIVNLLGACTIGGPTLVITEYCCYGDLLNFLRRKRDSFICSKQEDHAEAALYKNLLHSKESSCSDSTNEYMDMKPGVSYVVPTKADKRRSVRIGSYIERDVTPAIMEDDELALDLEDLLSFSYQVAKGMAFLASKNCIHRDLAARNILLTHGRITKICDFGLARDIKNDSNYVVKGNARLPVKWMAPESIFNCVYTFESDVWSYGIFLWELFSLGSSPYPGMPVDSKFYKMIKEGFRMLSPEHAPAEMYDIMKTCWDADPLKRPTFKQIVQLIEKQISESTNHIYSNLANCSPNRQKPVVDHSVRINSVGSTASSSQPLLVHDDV
Method: The ability of compounds of Formula I to inhibit c-KIT activation in cells was determined by the following assay. M-07e cells (human acute megakaryoblastic leukemia cell line) were serum-starved for 4 hours prior to treatment with compounds of Formula I for 1 hour. The concentration of compounds of Formula I was varied over a 9-point, 3-fold dilution series with 5,000 nM typically being the highest dose. Cell culture and treatment were carried out in a humidified 37° C., 5% CO2 incubator. Treated cells were stimulated with 150 ng/ml recombinant human SCF for 4 minutes to induce activation of c-KIT. Cells were lysed in a manner which preserves phosphoproteins, and the lysate was analyzed by ELISA (R&D Systems, Human Phospho-SCF R DuoSet IC DYC3527), in which total c-KIT protein in the lysate is captured and phosphotyrosine residues of c-Kit are detected. A standard curve, made using purified phospho-SCF R protein, was used to quantify phospho-c-KIT in compound-treated wells. A standard 4-parameter logistic model was fit to the inhibitor dose response curves, with the IC50 being defined as the concentration of inhibitor giving 50 percent of control (POC).

T1 sequence (P09619 33-1106): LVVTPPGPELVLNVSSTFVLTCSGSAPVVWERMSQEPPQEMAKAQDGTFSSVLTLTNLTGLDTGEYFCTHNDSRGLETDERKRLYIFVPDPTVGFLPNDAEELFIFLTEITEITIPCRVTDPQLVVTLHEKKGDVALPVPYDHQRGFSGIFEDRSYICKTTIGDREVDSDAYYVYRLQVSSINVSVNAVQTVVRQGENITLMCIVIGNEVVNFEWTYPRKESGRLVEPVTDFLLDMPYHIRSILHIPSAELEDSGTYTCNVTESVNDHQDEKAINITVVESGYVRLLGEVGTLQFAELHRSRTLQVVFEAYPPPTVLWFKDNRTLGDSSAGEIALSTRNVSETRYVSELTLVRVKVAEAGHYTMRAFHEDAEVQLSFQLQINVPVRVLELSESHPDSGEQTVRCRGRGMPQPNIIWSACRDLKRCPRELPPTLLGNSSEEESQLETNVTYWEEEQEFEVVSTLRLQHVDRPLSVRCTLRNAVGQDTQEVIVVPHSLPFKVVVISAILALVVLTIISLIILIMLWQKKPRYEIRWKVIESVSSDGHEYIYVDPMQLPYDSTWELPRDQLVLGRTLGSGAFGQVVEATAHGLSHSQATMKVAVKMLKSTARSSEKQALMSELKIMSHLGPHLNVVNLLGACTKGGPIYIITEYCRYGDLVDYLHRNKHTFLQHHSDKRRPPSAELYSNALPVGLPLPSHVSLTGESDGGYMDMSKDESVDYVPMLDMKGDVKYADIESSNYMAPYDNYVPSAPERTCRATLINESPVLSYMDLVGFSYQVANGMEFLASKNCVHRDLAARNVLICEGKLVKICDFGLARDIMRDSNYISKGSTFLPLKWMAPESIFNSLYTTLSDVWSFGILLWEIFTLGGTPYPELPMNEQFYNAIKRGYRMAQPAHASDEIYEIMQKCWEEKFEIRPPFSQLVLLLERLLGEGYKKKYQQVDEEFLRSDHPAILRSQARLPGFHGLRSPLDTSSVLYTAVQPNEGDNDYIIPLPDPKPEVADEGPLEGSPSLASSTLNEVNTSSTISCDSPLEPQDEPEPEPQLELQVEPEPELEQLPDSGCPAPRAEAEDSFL

Row | IC50 (PDGFR beta) | IC50 (cFMS) | IC50 (c-KIT) | SMILES
1 | 915 nM | 21.9 nM | 6870 nM | Cc1cccc(Cn2nc(C)c3c(NC(=O)c4cnc5cc(OCC(O)CO)ccn45)cccc32)n1 (stereo not drawn) [Example 58, 7-(2,3-dihydroxypropoxy)-N-(3-methyl-1-((6-methylpyridin-2-yl)methyl)-1H-indazol-4-yl)imidazo[1,2-a]pyridine-3-carboxamide]
2 | 19.3 nM | 19.4 nM | 1490 nM | Cc1cccc(Cn2nc(C)c3c(NC(=O)c4cnc5cc(OCCN6CCOCC6)ccn45)cccc32)n1 [Example 59, N-(3-methyl-1-((6-methylpyridin-2-yl)methyl)-1H-indazol-4-yl)-7-(2-morpholinoethoxy)imidazo[1,2-a]pyridine-3-carboxamide]
3 | 5000 nM | 35.6 nM | 4560 nM | Cc1cccc(Cn2nc(C)c3c(NC(=O)c4cnc5cc(OCCN(C)C)ccn45)cccc32)n1 [Example 60, 7-(2-(dimethylamino)ethoxy)-N-(3-methyl-1-((6-methylpyridin-2-yl)methyl)-1H-indazol-4-yl)imidazo[1,2-a]pyridine-3-carboxamide]
4 | 222 nM | 58.1 nM | 527 nM | Cc1cccc(Cn2nc(C)c3c(NC(=O)c4cnc5ccccn45)cccc32)n1 [Example 61, N-(3-methyl-1-((6-methylpyridin-2-yl)methyl)-1H-indazol-4-yl)imidazo[1,2-a]pyridine-3-carboxamide]
5 | 94.1 nM | 9.7 nM | 1010 nM | Cc1cccc(Cn2nc(C)c3c(NC(=O)c4cnc5cc(OCCN6CCNCC6)ccn45)cccc32)n1 [Example 64, N-(3-methyl-1-((6-methylpyridin-2-yl)methyl)-1H-indazol-4-yl)-7-(2-(piperazin-1-yl)ethoxy)imidazo[1,2-a]pyridine-3-carboxamide]
6 | 212 nM | 8.5 nM | 647 nM | Cc1cccc(Cn2nc(C)c3c(NC(=O)c4cnc5cc(-c6ccc(=O)n(C)c6)ccn45)cccc32)n1 [Example 65, N-(3-methyl-1-((6-methylpyridin-2-yl)methyl)-1H-indazol-4-yl)-7-(1-methyl-6-oxo-1,6-dihydropyridin-3-yl)imidazo[1,2-a]pyridine-3-carboxamide]
7 | 10.3 nM | 10 nM | 60.6 nM | Cc1nn(Cc2cc(C)n(C(C)C)n2)c2cccc(NC(=O)c3cnc4cc(OCCN5CCN(C)CC5)ccn34)c12 [Example 67, N-(1-((1-isopropyl-5-methyl-1H-pyrazol-3-yl)methyl)-3-methyl-1H-indazol-4-yl)-7-(2-(4-methylpiperazin-1-yl)ethoxy)imidazo[1,2-a]pyridine-3-carboxamide]
8 | 23.2 nM | 5 nM | 76.9 nM | Cc1cccc(Cn2nc(C)c3c(NC(=O)c4cnc5cc(-c6cnn(C)c6)ccn45)cccc32)n1 [Example 68, N-(3-methyl-1-((6-methylpyridin-2-yl)methyl)-1H-indazol-4-yl)-7-(1-methyl-1H-pyrazol-4-yl)imidazo[1,2-a]pyridine-3-carboxamide]
9 | 3160 nM | 24.2 nM | 7010 nM | Cc1cccc(Cn2nc(C)c3c(NC(=O)c4cnc5cc(CCN(C)C)ccn45)cccc32)n1 [Example 72, 7-(2-(dimethylamino)ethyl)-N-(3-methyl-1-((6-methylpyridin-2-yl)methyl)-1H-indazol-4-yl)imidazo[1,2-a]pyridine-3-carboxamide]
10 | 3430 nM | 17.3 nM | 4070 nM | Cc1cccc(Cn2nc(C)c3c(NC(=O)c4cnc5cc(CCN6CCN(C)CC6)ccn45)cccc32)n1 [Example 78, N-(3-methyl-1-((6-methylpyridin-2-yl)methyl)-1H-indazol-4-yl)-7-(2-(4-methylpiperazin-1-yl)ethyl)imidazo[1,2-a]pyridine-3-carboxamide]
11 | 174 nM | 8.2 nM | 5700 nM | COCCOc1ccn2c(C(=O)Nc3cccc4c3c(C)nn4Cc3ccccc3)cnc2c1 [Example 80, N-(1-benzyl-3-methyl-1H-indazol-4-yl)-7-(2-methoxyethoxy)imidazo[1,2-a]pyridine-3-carboxamide]
12 | 6440 nM | 136 nM | 4440 nM | Cc1ccc(Cn2nc(C)c3c(NC(=O)c4cnc5ccccn45)cccc32)cn1 [Example 81, N-(3-methyl-1-((6-methylpyridin-3-yl)methyl)-1H-indazol-4-yl)imidazo[1,2-a]pyridine-3-carboxamide]
13 | 401 nM | 10.4 nM | 303 nM | Cc1ccc(Cn2nc(C)c3c(NC(=O)c4cnc5cc(OCCN6CCN(C)CC6)ccn45)cccc32)cn1 [Example 85, N-(3-methyl-1-((6-methylpyridin-3-yl)methyl)-1H-indazol-4-yl)-7-(2-(4-methylpiperazin-1-yl)ethoxy)imidazo[1,2-a]pyridine-3-carboxamide]
14 | 117 nM | 7 nM | 314 nM | CCOc1cccc(Cn2nc(C)c3c(NC(=O)c4cnc5cc(OCCN6CCN(C)CC6)ccn45)cccc32)n1 [Example 86, N-(1-((6-ethoxypyridin-2-yl)methyl)-3-methyl-1H-indazol-4-yl)-7-(2-(4-methylpiperazin-1-yl)ethoxy)imidazo[1,2-a]pyridine-3-carboxamide]
15 | 77.7 nM | 4.9 nM | 372 nM | COc1cccc(Cn2nc(C)c3c(NC(=O)c4cnc5cc(OCCN6CCN(C)CC6)ccn45)cccc32)n1 [Example 87, N-(1-((6-methoxypyridin-2-yl)methyl)-3-methyl-1H-indazol-4-yl)-7-(2-(4-methylpiperazin-1-yl)ethoxy)imidazo[1,2-a]pyridine-3-carboxamide]
16 | 180 nM | 15.6 nM | 510 nM | Cc1nc(Cn2nc(C)c3c(NC(=O)c4cnc5cc(OCCN6CCN(C)CC6)ccn45)cccc32)cs1 [Example 88, N-(3-methyl-1-((2-methylthiazol-4-yl)methyl)-1H-indazol-4-yl)-7-(2-(4-methylpiperazin-1-yl)ethoxy)imidazo[1,2-a]pyridine-3-carboxamide]
17 | 845 nM | 7.3 nM | 1050 nM | Cc1cccc(Cn2nc(C)c3c(NC(=O)c4cnc5cc(OCCN6CCN(C)CC6)ccn45)cccc32)n1 [Example 89, N-(3-methyl-1-((6-methylpyridin-2-yl)methyl)-1H-indazol-4-yl)-7-(2-(4-methylpiperazin-1-yl)ethoxy)imidazo[1,2-a]pyridine-3-carboxamide tetrahydrochloride]
18 | 5 nM | 9.8 nM | 25.8 nM | O=C(Nc1cccc2c1cnn2Cc1ccccc1)c1cnc2cc(OCCN3CCOCC3)ccn12 [Example 90, N-(1-benzyl-1H-indazol-4-yl)-7-(2-morpholinoethoxy)imidazo[1,2-a]pyridine-3-carboxamide]
19 | 6 nM | 842 nM | 6.4 nM | COCCOc1ccn2c(C(=O)Nc3cccc4c3cnn4Cc3cccc(C(=O)OC)c3)cnc2c1 [Example 93, Methyl 3-((4-(7-(2-methoxyethoxy)imidazo[1,2-a]pyridine-3-carboxamido)-1H-indazol-1-yl)methyl)benzoate]

From patent publication US10669269B2, “Substituted N-(1H-indazol-4-yl)imidazo[1,2-a]pyridine-3-carboxamide compounds as type III receptor tyrosine kinase inhibitors” (ARRAY BIOPHARMA INC., priority 2010, dated 2020)
